Columns and labels:
[1] = Dissolution kinetics in SLF, USP2 apparatus; format: physicochemical; details: SLF pH 7.4, 37° C., 5 mg in 500 mL
Protocol: The dissolution kinetics of the 3 different loading samples described in Example 5 were characterized in SLF (pH 7.4; made up with the salts NaCl, NaHCO3, KCl, MgCl2, CaCl2, Na2SO4, sodium citrate dihydrate, NaH2PO4 (all from Sigma)) at 37° C. using a USP2 dissolution apparatus with stirring speed 50 rpm. Free, unloaded thalidomide was used as control. Concentration of drug at set times after release was measured by a UV/vis spectrometer (Cecil 3021) at 220 nm.
The dose of thalidomide was calculated as 5 mg of thalidomide in 500 mL of SLF.

[2] = Dissolution kinetics in SLF with Tween 80, non-sink conditions; format: physicochemical; details: SLF with 1 wt % Tween 80, 80 mg dosage
Protocol: Given that thalidomide rapidly recrystallizes in solution, an experiment was conducted in the presence of a surfactant to stabilize the dissolved drug.
Tween 80 (1 wt %; Sigma) was added in the dissolution bath in SLF media. The dosage was increased to 80 mg to investigate the dissolution kinetics at high drug concentration, to simulate dissolution in non-sink conditions.

time in which Cmax was achieved [1]: 30 min
time to reach Cmax [2]: 30 min
SMILES: O=C1CCC(N2C(=O)c3ccccc3C2=O)C(=O)N1 (centres unmarked) [free drug, thalidomide]
